{"source": "patent US10328076B2", "about": "“Pharmaceutical composition comprising a triazole antifungal agent and method for preparation thereof” (PHARMATHEN S.A., priority 2014, dated 2019)", "origin": "cited, not measured here", "note": "Like-named read-outs stand apart in the source and are kept apart here."}
{"compound": "C[C@@H](c1ncncc1F)[C@](O)(Cn1cncn1)c1ccc(F)cc1F", "note": "[Voriconazole, (2R,3S)-2-(2,4-difluorophenyl)-3-(5-fluoropyrimidin-4-yl)-1-(1H-1,2,4-triazol-1-yl)butan-2-ol]", "values": [{"measurement": "Solubility", "setting": "in acetone", "value": "freely soluble"}, {"measurement": "Solubility", "setting": "in dichlorometane", "value": "freely soluble"}, {"measurement": "Solubility", "setting": "in water", "value": "very slightly soluble"}]}
